Consider 13 compounds from patent publication US20010051631A1, “Tricyclic compounds, their production and use” (priority 1994, published 2001).

For one data set, the system named is PDGF-induced contraction. Briefly: Inhibitory effects on the contraction due to PDGF (isolated thoracic aorta strips). Set-up: species or system stroke prone spontaneously hypertensive rats. The note with it: 1.7 nM PDGF-AB, drug added 30 minutes before. The procedure: Method: The thoracic aorta of stroke prone spontaneously hypertensive rats at ages ranging from 16 to 36 weeks were isolated, and strip (2 mm in width, 2 cm in length) were prepared from the aorta. Each strip was mounted in 10 ml of an organ bath, which was loaded at 2 g and allowed to stabilized for 2 to 3 hours. As the nutrient, a Krebs-Henseleit solution, bubbled with a mixture gas (95% O2, 5% CO2), was used. At the time when the contraction response against 60 mM KCl becomes constant, each strip was applied by 1.7 nM of PDGF-AB (Cosmobio Inc.) for contraction. Observation was continued until the contraction become maximum and stable (30 to 40 minutes after application of PDGF-AB). Then, the strips were washed, and, in about one hour later (after the tone of the vaso-contraction was recovered to the original level), 10 μl of the drug (DMSO solution) was added. Thirty minutes after drug, 1.7 nM of PDGF-AB was added again and subjected to observation until the contraction became maximum. The PDGF-AB-induced contraction was isometrically recorded on a polygraph (Nihon Denki San-ei). From the contractile response of the strips to PDGF-AB in the absence or presence of drugs, % inhibition of each drug was calculated. IC50 value for the inhibitory effects was calculated in accordance with the Filler's theorem using the least squares method.

For data set [1], the system named is spontaneously hypertensive rats (SHRs). Put plainly: Antihypertensive action in spontaneously hypertensive rats (SHRs). Type of data set: in vivo, rat. The note with it: SHR, oral. The procedure:
Method: Male SHR at ages ranging from 20 to 24 weeks were anesthetized with pentobarbital.sodium (50 mg/kg, i.p.) and, from the femoral artery of each animal, a polyethylene tube was inserted. The polyethylene tube was connected to a pressure transducer and blood pressure after oral administration of drugs was recorded continuously under non-anesthesia. The animals, after the operation, were allowed to freely access to drinking water and eating, until administration of the drugs. The compounds were all orally administered as a suspension in gum arabic (2 ml/kg).

The next data set has as its system hamsters. Briefly: Cholesterol lowering effects in hamsters. It is filed as in vivo, Syrian hamsters. The procedure:
Method: Syrian hamsters of 10 weeks old were stabilized with common feed for two weeks. The animals were grouped based on the total cholesterol in blood. The vehicle (water) or drug was orally administered in a volume of 2 ml/kg for two weeks. During the period of the administration, blood was collected from retinal vessels with passage of time and the total cholesterol and triglyceride in blood were determined. On the other hand, blood was collected from abdominal aorta on the second week after the consecutive administration of the test compounds to determine the total cholesterol, triglyceride and HDL (high density lipid)-cholesterol in blood. Cholesterol C-test, triglyceride G-test and HDL-cholesterol E test (all manufactured by Wako Pure Chemical Industries, Ltd.) were used for the determination of these parameters, respectively.

The subject of a further data set is 5/6 nephrectomized rats. Briefly: Antiproteinuric effect in 5/6 nephrectomized rats. It is filed as in vivo, Sprague Dawley rats. The procedure: Method: Male Sprague Dawley rats of five-week old (Japan Clea) were anesthetized with pentobarbital.sodium (50 mg/kg, i.p.), and the right kidney was excised by dorsal incision, and its two-thirds were cut. Two weeks later, the whole of left kidney was removed. In the Sham group, only the second operation was performed. In two weeks after the second operation, urine was collected for 24 hours under drinking water ad libitum. Urinary albumin and total protein were quantitatively determined by the use of A/G B-test (Wako). On the following day of collecting urine, the blood pressure was measured by the tail cuff method. Test animals showing more proteinuria than that of Sham group were selected. Based on the amount of the proteinuria and the blood pressure level, the animals were grouped so that, the average and distribution of urinary protein and blood pressure same in each group. The drug was suspended in gumarabic/water or dissolved in water, and orally administered once a day for 6-8 weeks in a volume of 2 ml/kg. The administration was consecutively performed, and, at 2, 4, 6 and 8th weeks of treatment, urine was collected and blood pressure was measured. The vehicle group was orally administered with only water at a dose of 2 ml/kg.

The mark [2] stands for this setting: 10 mg/kg oral once a day, 0 weeks.
[3] abbreviates: 10 mg/kg oral once a day, 2 weeks.
[4] abbreviates: 10 mg/kg oral once a day, 4 weeks.
[5] abbreviates: 10 mg/kg oral once a day, 6 weeks.
Where [6] appears, read: 10 mg/kg oral once a day, 8 weeks.
[7] abbreviates: 3 mg/kg oral once a day, 0 weeks.
The mark [8] stands for this setting: 3 mg/kg oral once a day, 2 weeks.
The mark [9] stands for this setting: 3 mg/kg oral once a day, 4 weeks.
Setting [10] is: 3 mg/kg oral once a day, 6 weeks.
Where [11] appears, read: 3 mg/kg oral once a day, 8 weeks.

Compound `Cc1ncc2ccc3n(CCCCCNS(=O)(=O)C(F)(F)F)c(=O)c1n23.Cl` [Example 26] showed an IC50 with PDGF-induced contraction of 370 nM. Besides, the blood-pressure change in data set [1] (10 mg/kg, after 7 hrs.) was −22 [after 7 hrs.] mmHg. Also, in the data set with hamsters (30 mg/kg oral for two weeks), the “TC (total cholesterol in blood), % of Vehicle” value was 74.5 % of Vehicle and the “TC-HDL ([total cholesterol value]-[HDL-cholesterol value]), % of Vehicle” value (shortened to “TC-HDL … % of Vehicle”) is given as 72.1 % of Vehicle.

On to `Cl.O=c1c2cccc3ncc(c(=O)n1CCCCNS(=O)(=O)C(F)(F)F)n32` [Example 11, 4,5-Dihydro-4-[4-(trifluoromethanesulfonamido)butan-1-yl]-3H-1,4,8b-triazaacenaphthylene-3,5-dione.hydrochloride], for which the Urinary albumin excretion in the data set on 5/6 nephrectomized rats (setting [2]) is 10.2 mg/day; with 5/6 nephrectomized rats (setting [3]) it was 19.8 mg/day; in the data set with 5/6 nephrectomized rats (setting [4]), 30.3 mg/day; in the data set with 5/6 nephrectomized rats (setting [5]) it was 26.0 mg/day; in the data set on 5/6 nephrectomized rats (setting [6]), 38.3 mg/day. Moreover, the Urinary protein excretion was found to be 115.1 mg/day with 5/6 nephrectomized rats (setting [2]); 69.1 mg/day in the data set with 5/6 nephrectomized rats (setting [3]); 62.5 mg/day in the data set on 5/6 nephrectomized rats (setting [4]); 170.3 mg/day in the data set on 5/6 nephrectomized rats (setting [5]); 125.4 mg/day with 5/6 nephrectomized rats (setting [6]). The blood-pressure change in data set [1] (30 mg/kg, after 7 hrs.) was −31 [after 7 hrs.] mmHg.

In the data set on PDGF-induced contraction, `Cc1nc2cccc3n2c1CN(CCCCNS(=O)(=O)C(F)(F)F)C3.Cl.Cl` [Example 3, 4,5-Dihydro-2-methyl-4-[4-(trifluoromethanesulfonamido)butan-1-yl]-3H-1,4,8b-triazaacenaphthylene.dihydrochloride] gave an IC50 of 290 nM. In addition, in the data set on hamsters (10 mg/kg oral for two weeks), the “TC (total cholesterol in blood), % of Vehicle” value was 82.2 % of Vehicle and the “TC-HDL … % of Vehicle” value is listed as 79.0 % of Vehicle.

For the compound `Cl.O=C1c2cnc3cccc(n23)CN1CCCCCNS(=O)(=O)C(F)(F)F` [Example 8, 4,5-Dihydro-4-[5-(trifluoromethanesulfonamido)pentan-1-yl]-3H-1,4,8b-triazaacenaphthylen-3-one.hydrochloride], it took 310 nM to reach half-maximal inhibition with PDGF-induced contraction (IC50). In addition, in the data set on hamsters (10 mg/kg oral for two weeks), the “TC (total cholesterol in blood), % of Vehicle” value is given as 81.5 % of Vehicle and the “TC-HDL … % of Vehicle” value is 77.1 % of Vehicle.

`CC(C)(C)OC(=O)NCCCCn1c(=O)c2cccc3ncc(c1=O)n32` [Example 17, 4,5-Dihydro-4-[4-(tert-butoxycarbonylamino)butan-1-yl]-3H-1,4,8b-triazaacenaphthylene-3,5-dione] registered a melting point of 118 to 119 °C.

In the case of “1,2-Dihydro-3-methyl-1-[6-(trifluoromethanesulfon-amido)hexan-1-yl)-1,4,7b-triazacyclopent[cd]inden-2-one.hydrochloride [Example 28]”, the blood-pressure change in data set [1] (30 mg/kg, after 3 hrs.) was −13 [after 3 hrs.] mmHg. Also, in the data set with hamsters (30 mg/kg oral for two weeks), the “TC (total cholesterol in blood), % of Vehicle” value was 65.1 % of Vehicle and the “TC-HDL … % of Vehicle” value is 61.6 % of Vehicle.

As for `CCS(=O)(=O)NCCCCn1c(=O)c2c(C)ncc3ccc1n32.Cl` [Example 35, 1,2-Dihydro-3-methyl-1-[4-(ethanesulfonamido)butan-1-yl]-1,4,7b-triazacyclopent[cd]inden-2-one.hydrochloride], the blood-pressure change in data set [1] (30 mg/kg, after 2 hrs.) was −14 [after 2 hrs.] mmHg.

For `Cc1ncc2ccc3n(CCCCCNS(=O)(=O)CC(F)(F)F)c(=O)c1n23.Cl` [Example 27, 1,2-Dihydro-3-methyl-1-[5-[(2,2,2-trifluoro)-ethanesulfonamido]pentan-1-yl]-1,4,7b-triazacyclopent[cd]inden-2-one.hydrochloride], the blood-pressure change in data set [1] (30 mg/kg, after 7 hrs.) is −17 [after 7 hrs.] mmHg.

Consider “1,2-Dihydro-3-methyl-1-[4-[(2,2,2-trifluoro)ethanesulfonamido]butan-1-yl]-1,4,7b-triazacyclopent[cd]inden-2-one.hydrochloride [Example 38]”, for which, in data set [1] (30 mg/kg, after 4 hrs.), the blood-pressure change was −19 [after 4 hrs.] mmHg.

As to “1,2-Dihydro-3-methyl-1-[3,3-dimethyl-5-(trifluoromethanesulfonamido)pentan-1-yl]-1,4,7b-triazacyclopent[cd]inden-2-one.hydrochloride [Example 40]”, the blood-pressure change in data set [1] (30 mg/kg, after 7 hrs.) was −20 [after 7 hrs.] mmHg.

In turn, `Cl.Cl.O=S(=O)(NCCCCN1Cc2cccc3ncc(n23)C1)C(F)(F)F` [Example 1, 4,5-Dihydro-4-[4-(trifluoromethanesulfonamido)butan-1-yl]-3H-1,4,8b-triazaacenaphthylene.dihydrochloride] had an IC50 in the data set on PDGF-induced contraction of 2130 nM. Further, the Urinary albumin excretion with 5/6 nephrectomized rats (setting [7]) is 11.2 mg/day; in the data set on 5/6 nephrectomized rats (setting [8]) it was 16.9 mg/day; in the data set with 5/6 nephrectomized rats (setting [9]), 18.4 mg/day; in the data set on 5/6 nephrectomized rats (setting [10]), 13.0 mg/day; with 5/6 nephrectomized rats (setting [11]), 25.1 mg/day. Also, the Urinary protein excretion was determined as 114.5 mg/day in the data set on 5/6 nephrectomized rats (setting [7]); 117.0 mg/day in the data set with 5/6 nephrectomized rats (setting [8]); 98.2 mg/day in the data set with 5/6 nephrectomized rats (setting [9]); 156.3 mg/day in the data set on 5/6 nephrectomized rats (setting [10]); 102.8 mg/day with 5/6 nephrectomized rats (setting [11]). The blood-pressure change in data set [1] (10 mg/kg, after 5 hrs.) was −21 [after 5 hrs.] mmHg. Moreover, the “TC (total cholesterol in blood), % of Vehicle” value in the data set with hamsters (30 mg/kg oral for two weeks) is on record as 64.1 % of Vehicle. Also, the “TC-HDL … % of Vehicle” value with hamsters (30 mg/kg oral for two weeks) is reported as 68.9 % of Vehicle.

`Cl.O=C1c2cnc3cccc(n23)CN1CCCCNS(=O)(=O)C(F)(F)F` [Example 6, 4,5-Dihydro-4-[4-(trifluoromethanesulfonamido)butan-1-yl]-3H-1,4,8b-triazaacenaphthylen-3-one.hydrochloride] showed an IC50 in the data set with PDGF-induced contraction of 1270 nM. The Urinary albumin excretion with 5/6 nephrectomized rats (setting [2]) is 6.8 mg/day; in the data set with 5/6 nephrectomized rats (setting [3]), 13.5 mg/day; in the data set with 5/6 nephrectomized rats (setting [4]), 17.2 mg/day; in the data set with 5/6 nephrectomized rats (setting [5]), 13.1 mg/day; in the data set with 5/6 nephrectomized rats (setting [6]), 24.8 mg/day. Besides, the Urinary protein excretion in the data set on 5/6 nephrectomized rats (setting [2]) worked out at 114.1 mg/day; with 5/6 nephrectomized rats (setting [3]), 103.0 mg/day; in the data set with 5/6 nephrectomized rats (setting [4]) it was 93.9 mg/day; in the data set on 5/6 nephrectomized rats (setting [5]), 167.2 mg/day; with 5/6 nephrectomized rats (setting [6]), 117.3 mg/day. The blood-pressure change in data set [1] (10 mg/kg, after 4 hrs.) was −19 [after 4 hrs.] mmHg. For the same compound, the “TC (total cholesterol in blood), % of Vehicle” value in the data set with hamsters (10 mg/kg oral for two weeks) was 89.5 % of Vehicle. For the same compound, the “TC-HDL … % of Vehicle” value in the data set on hamsters (10 mg/kg oral for two weeks) is 84.6 % of Vehicle.

As to “1,2-Dihydro-3-methyl-1-[4-(methoxycarbonylamino)butan-1-yl]-1,4,7b-triazacyclopento[cd]inden-2-one.hydrochloride [Example 37]”, in data set [1] (30 mg/kg, after 5 hrs.), the blood-pressure change is −14 [after 5 hrs.] mmHg.

A word on the IC50: it is the concentration that gives 50% inhibition. Low readings indicate inhibition by little substance, high ones a need for much substance. Usually melting point stands for the temperature, or range, at which the solid turns liquid.
